Test results as given in PMC12064818, “A general assay platform to study protein pharmacology using ligand-dependent structural dynamics” (Nature Communications, 2025).
Several values for one entry are separate records, joined by “and”; a condition that tells them apart may be missing. Equal values may be shown once.

Key:
[1] = target: T1, ABL1-N-HiBiT kinase domain (Homo sapiens, UniProt P00519); test: SDR assay, ABL1-N-HiBiT
T1 sequence (P00519 233-500): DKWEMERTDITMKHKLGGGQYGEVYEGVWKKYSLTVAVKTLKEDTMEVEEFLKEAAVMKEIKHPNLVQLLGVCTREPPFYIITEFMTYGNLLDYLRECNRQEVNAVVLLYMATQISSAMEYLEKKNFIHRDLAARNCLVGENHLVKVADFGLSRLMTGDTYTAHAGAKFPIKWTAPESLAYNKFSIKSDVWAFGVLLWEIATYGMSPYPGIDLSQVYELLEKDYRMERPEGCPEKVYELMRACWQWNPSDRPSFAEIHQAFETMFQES

[2] = system: E. coli Lig-C-HiBiT (DNA ligase); test: SDR assay (aqueous ligand dispense), E. coli Lig-C-HiBiT; conditions: for SDR assay data: 1 nM E. coli Lig-C-HiBiT; for SDR assay data / SDR response: Log [ATP]; for SDR response: replicates
B. malayi iPGM-C-HiBiT [3] = target: T2, B. malayi iPGM-C-HiBiT (Brugia malayi, UniProt Q4VWF8); conditions: B. malayi iPGM-C-HiBiT SDR 0.5 nM; ligand […] SDR
B. malayi iPGM-C-HiBiT [4] = target: T2, B. malayi iPGM-C-HiBiT; test: biochemical
B. malayi iPGM-C-HiBiT [5] = target: T2, B. malayi iPGM-C-HiBiT; test: iPGM coupled-enzyme assay, B. malayi iPGM-C-HiBiT; type: biochemical; parameters: cDNA, containing Ala2-Glu515 and the 6xHis tag; His6 (C); made in house; host or cells: E. coli; conditions: B. malayi iPGM-C-HiBiT Std 5 nM; ligand […] Std
Description: The enzyme activity of C. elegans or B. malayi iPGM-C-HiBiT was measured using the functional coupled-enzyme luminescence end-point output assay for iPGM as previously described[16],[41],[68]. Briefly, the indicated concentration of 4 μL of iPGM-C-HiBiT was dispensed into 1536-well white, high solid base, medium bind plates in a pH 8.0 iPGM assay buffer (30 mM Tris-HCl, 5 mM magnesium sulfate, 20 mM potassium chloride and 0.08% BSA) with the BioRaptr 2. Compounds and controls were added to each plate with a pintool as described in Supplementary Data 8. Enzymes were incubated with peptide for > 20 min at ambient temperature, protected from light. […] Enzyme was at 5 nM final concentration for the standard assay with an estimated KM 3-phosphoglycerate (3PG) substrate concentration of 400 μM. Plates were incubated at ambient temperature for 10 min, protected from light, then measured by a ViewLux plate reader. […] See Supplementary Table 6 for additional details.
Supplementary Table 6. Protocol for Co- factor independent phosphoglycerate mutase (iPGM) coupled-enzyme assay
Supplementary Table 6: Protocol for Co-factor independent phosphoglycerate m utase (iPGM) coupled- enzym e assay […]
No enzym e control (colum n 1) and enzym e solutions (5 nM Bm iPGM-C-HiBiT or Ce iPGM-1 Reagent 4 µLC-HiBiT dialyzed against Zn/Mn final assay concentration) in PGM enzym e buffer; white/solid bottom , m edium bind, high base plates (Greiner), dispensed with BioRaptr 2 […]
in 8-pt 1:6 titration series in duplicate); com pounds transferred to respective colum ns with […]
Test com pounds: m acrocyclic peptides at 5 m M stock concentration in 16-pt, 1:3 titration […]
transferred to respective colum ns with Pintool
3 Incubation 20 m inIncubate enzym e + com pounds at am bient tem p for 20 m in, protected from light 4 Reagent 2 µLSubstrate solution; 0.4 m M final concentration 3PG in coupled-enzym e substrate buffer; dispensed with BioRaptr 2
5 Incubation 5 m inAm bient tem perature, protected from light
6 Reagent 4 µLKinase-Glo Plus reagent (Prom ega) prepared according to m anufacturer’s protocol;
7 Incubation 10 m inRoom tem perature, protected from light
8 Detector ViewLuxRead plate lum inescence (Exposure = 1 sec; Gain = Medium; Speed = Slow; Binning = 2X) […]
in 20% glycerol); Bm iPGM-C-HiBiT enzym e 10 µM stock solution in 20% glycerol.
Coupled-enzym e substrate solution: 30 m M Tris-HCl, pH 8.0; 5 m M MgSO4; 20 m M KCl; 9 m M ADP (3 m M final); 0.1 4 units/µl enolase (Millipore Sigm a, Cat# E6126); 0.15 units/µl pyruvate kinase (from rabbit m uscle, Millipore Sigm a, Cat #

[6] = target: FLuc-N-HiBiT (firefly luciferase) (Photinus pyralis, UniProt P08659, form not given/L550V); test: SDR assay, FLuc-N-HiBiT; conditions: for 10 nM FLuc-N-HiBiT + 10 mM ATP, Mean / 10 nM FLuc-N-HiBiT No ATP, Mean: Log [PTC124]
[7] = E. coli Lig-C-HiBiT (1.0 nM), ligand 100 µM

Chain of FLuc-N-HiBiT (firefly luciferase) (P08659 2-550 L550V, form open): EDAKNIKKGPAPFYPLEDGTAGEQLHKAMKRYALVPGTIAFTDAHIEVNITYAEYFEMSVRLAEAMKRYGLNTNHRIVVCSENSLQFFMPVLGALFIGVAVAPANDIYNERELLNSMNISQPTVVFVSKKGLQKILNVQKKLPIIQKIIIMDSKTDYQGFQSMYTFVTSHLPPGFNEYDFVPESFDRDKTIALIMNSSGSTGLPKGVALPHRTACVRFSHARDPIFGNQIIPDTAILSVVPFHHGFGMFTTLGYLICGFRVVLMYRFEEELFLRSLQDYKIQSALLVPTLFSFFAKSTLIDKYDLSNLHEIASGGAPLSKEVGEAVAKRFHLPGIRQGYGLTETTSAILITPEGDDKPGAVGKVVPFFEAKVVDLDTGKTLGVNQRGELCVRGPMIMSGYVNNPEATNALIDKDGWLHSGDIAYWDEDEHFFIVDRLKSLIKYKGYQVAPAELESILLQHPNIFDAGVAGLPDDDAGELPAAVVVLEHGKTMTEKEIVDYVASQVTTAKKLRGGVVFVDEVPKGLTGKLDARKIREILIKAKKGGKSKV
T2 sequence (Q4VWF8 2-515): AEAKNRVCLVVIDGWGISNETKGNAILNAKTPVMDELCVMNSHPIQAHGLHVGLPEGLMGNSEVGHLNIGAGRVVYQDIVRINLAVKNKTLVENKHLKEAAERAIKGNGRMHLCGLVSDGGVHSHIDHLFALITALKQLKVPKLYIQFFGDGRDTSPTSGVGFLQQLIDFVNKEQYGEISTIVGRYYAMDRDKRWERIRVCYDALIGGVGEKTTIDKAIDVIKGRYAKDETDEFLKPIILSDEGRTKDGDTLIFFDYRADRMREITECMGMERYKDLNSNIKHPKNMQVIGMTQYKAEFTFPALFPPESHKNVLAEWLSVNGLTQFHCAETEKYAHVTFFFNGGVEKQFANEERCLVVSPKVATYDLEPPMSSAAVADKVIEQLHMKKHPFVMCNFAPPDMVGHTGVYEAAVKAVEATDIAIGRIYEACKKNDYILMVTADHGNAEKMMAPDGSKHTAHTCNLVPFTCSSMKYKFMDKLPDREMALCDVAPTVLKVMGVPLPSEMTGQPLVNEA

## Nc1ncnc2c1ncn2[C@@H]1O[C@H](COP(=O)(O)OP(=O)(O)OP(=O)(O)O)[C@@H](O)[C@H]1O [ATP]
[1]
  EC50: 24.5 µM
[2]; M -3.15
  SDR assay data: 6.4 and 7.5 and 12.8
  SDR response: 6.4 and 12.8
[2]; M -3.75
  SDR assay data: 7.0 and 9.1
  SDR response: 7.0 and 9.1
[2]; M -4.05
  SDR assay data: 6.9 and 5.8 and 9.6
  SDR response: 6.9 and 5.8 and 9.6
[2]; M -6.76
  SDR assay data: 5.3 and 6.4 and 8.6
  SDR response: 5.3 and 6.4
[2]; [7]
  SDR assay statistics Ave RLU: 2214.0 RLU
  SDR assay statistics S:B: 1.1
[2]; E. coli Lig-C-HiBiT, maximum response
  max resp: 7.8
[2]; M -2.85
  SDR response: 4.8 and 10.7
[2]; M -3.45
  SDR response: 4.5 and 9.6
[2]; M -4.35
  SDR response: 9.4 and 4.6 and 6.2
[2]; M -4.65
  SDR response: 10.2 and 2.5
[2]; M -4.95
  SDR response: 10.5 and 2.6
[2]; M -5.25
  SDR response: 4.4 and 2.6 and 13.4
[2]; M -5.55
  SDR response: 1.7 and 7.1
[2]; M -5.86
  SDR response: 5.9
[2]; M -6.16
  SDR response: 9.8 and 1.1 and 5.3
[2]; M -6.46
  SDR response: 6.3 and 0.236 and 4.6

## CC(C)C[C@H](NC(=O)[C@H](Cc1ccc(O)cc1)NC(=O)[C@@H]1CSCC(=O)N[C@H](Cc2ccc(O)cc2)C(=O)N[C@@H](CC(=O)O)C(=O)N[C@@H](Cc2ccc(O)cc2)C(=O)N2CCC[C@H]2C(=O)NCC(=O)N[C@@H](CC(=O)O)C(=O)N[C@@H](Cc2ccc(O)cc2)C(=O)N1)C(=O)N[C@@H](Cc1ccc(O)cc1)C(=O)NCC(=O)N[C@H](C(=O)N[C@@H](CS)C(=O)NCC(N)=O)[C@@H](C)O [Ce-2]
B. malayi iPGM-C-HiBiT [3]
  SDR assay statistics Ave RLU: 552.2 RLU
  SDR assay statistics S:B: 1.8
  SDR assay statistics S:N: 14.4
  SDR assay statistics Z’: 0.702
B. malayi iPGM-C-HiBiT [4]
  EC50: 40.7 nM
B. malayi iPGM-C-HiBiT [5]
  Standard assay statistics Ave RLU: 4115.8 RLU
  Standard assay statistics S:B: 1.7
  Standard assay statistics S:N: -6.9
  Standard assay statistics Z’: 0.521

## O=C(O)c1cccc(-c2noc(-c3ccccc3F)n2)c1 [PTC124, reference compound]
[6]; 0 μM ATP
  pSDR50, FLuc-N-HiBiT (10 nM): 6.64 ± 0.05
[6]; 10 μM ATP
  pSDR50, FLuc-N-HiBiT (10 nM): 8.07 ± 0.05
[6]; M (SDR) -4.48
  10 nM FLuc-N-HiBiT + 10 mM ATP, Mean: 41609.1 RLU
  10 nM FLuc-N-HiBiT No ATP, Mean: 44446.2 RLU
[6]; M (SDR) -4.96
  10 nM FLuc-N-HiBiT + 10 mM ATP, Mean: 42409.7 RLU
  10 nM FLuc-N-HiBiT No ATP, Mean: 44381.0 RLU
[6]; M (SDR) -5.44
  10 nM FLuc-N-HiBiT + 10 mM ATP, Mean: 42866.9 RLU
  10 nM FLuc-N-HiBiT No ATP, Mean: 43085.6 RLU
[6]; M (SDR) -5.91
  10 nM FLuc-N-HiBiT + 10 mM ATP, Mean: 43432.3 RLU
  10 nM FLuc-N-HiBiT No ATP, Mean: 42891.6 RLU
[6]; M (SDR) -6.39
  10 nM FLuc-N-HiBiT + 10 mM ATP, Mean: 43449.2 RLU
  10 nM FLuc-N-HiBiT No ATP, Mean: 36744.1 RLU
[6]; M (SDR) -6.87
  10 nM FLuc-N-HiBiT + 10 mM ATP, Mean: 43724.9 RLU
  10 nM FLuc-N-HiBiT No ATP, Mean: 28974.8 RLU
[6]; M (SDR) -7.35
  10 nM FLuc-N-HiBiT + 10 mM ATP, Mean: 42289.0 RLU
  10 nM FLuc-N-HiBiT No ATP, Mean: 26642.9 RLU
[6]; M (SDR) -7.82
  10 nM FLuc-N-HiBiT + 10 mM ATP, Mean: 38396.4 RLU
  10 nM FLuc-N-HiBiT No ATP, Mean: 23375.2 RLU
[6]; M (SDR) -8.30
  10 nM FLuc-N-HiBiT + 10 mM ATP, Mean: 32370.1 RLU
  10 nM FLuc-N-HiBiT No ATP, Mean: 21721.8 RLU
[6]; M (SDR) -8.78
  10 nM FLuc-N-HiBiT + 10 mM ATP, Mean: 29426.2 RLU
  10 nM FLuc-N-HiBiT No ATP, Mean: 22027.4 RLU
[6]; M (SDR) -9.25
  10 nM FLuc-N-HiBiT + 10 mM ATP, Mean: 28882.5 RLU
  10 nM FLuc-N-HiBiT No ATP, Mean: 22062.2 RLU
[6]; M (SDR) -9.73
  10 nM FLuc-N-HiBiT + 10 mM ATP, Mean: 28374.1 RLU
  10 nM FLuc-N-HiBiT No ATP, Mean: 21924.6 RLU
[6]; M (SDR) -10.21
  10 nM FLuc-N-HiBiT + 10 mM ATP, Mean: 28052.8 RLU
  10 nM FLuc-N-HiBiT No ATP, Mean: 22527.7 RLU
[6]; M (SDR) -10.69
  10 nM FLuc-N-HiBiT + 10 mM ATP, Mean: 27509.0 RLU
  10 nM FLuc-N-HiBiT No ATP, Mean: 22231.2 RLU
[6]; M (SDR) -11.16
  10 nM FLuc-N-HiBiT + 10 mM ATP, Mean: 27726.0 RLU
  10 nM FLuc-N-HiBiT No ATP, Mean: 21138.2 RLU
[6]; M (SDR) -11.64
  10 nM FLuc-N-HiBiT + 10 mM ATP, Mean: 27670.3 RLU
  10 nM FLuc-N-HiBiT No ATP, Mean: 21494.9 RLU
